Measured values published in US20060069132A1, “Azolecarboxamide herbicides” (priority 2004, published 2006).

Experiments:
[1] = system: barnyardgrass; test: Test A pre-/postemergence herbicide test; assay type: in vivo, Echinochloa crus-galli; details: for Plant response rating, Barnyardgrass: Postemergence; for Barnyardgrass plant response rating: Preemergence
In short: (§1)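 Visual injury rating on a 0–100 scale (0 no effect, 100 complete control) versus untreated controls, about ten days after treatment in greenhouse. Pre: directed soil spray onto seeded sandy loam. Post: spray to runoff on plants 2–10 cm tall at one- to two-leaf stage.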

[2] = system: common ragweed; test: Test C pre-/postemergence herbicide test; assay type: in vivo, Ambrosia elatior; parameters: key to Plant response rating, Ragweed: 0 = no effect, 100 = complete control
In short: (§2)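 Pre- and postemergence application, solvent/surfactant formulation; post at 1- to 4-leaf stage (2–18 cm). Greenhouse 12–14 d. Visual rating vs controls, 0 = no effect, 100 = complete control.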

[3] = system: kochia; test: Test C pre-/postemergence herbicide test; assay type: in vivo, Kochia scoparia
In short: as §2

[4] = system: giant foxtail; test: Test C pre-/postemergence herbicide test; assay type: in vivo, Setaria faberi
In short: as §2

[5] = system: redroot pigweed; test: Test A pre-/postemergence herbicide test; assay type: in vivo, Amaranthus retroflexus; details: for Plant response rating, Pigweed: Postemergence; for Pigweed plant response rating: Preemergence
In short: as §1

[6] = system: common (oilseed) sunflower; test: Test C pre-/postemergence herbicide test; assay type: in vivo, Helianthus annuus; details: for Plant response rating (0 = no effect, 100 = complete control), Sunflower: 62 g ai/ha; for Plant response rating (0 = no effect, 100 = complete control), Sunflower / Plant response rating, Sunflower: preemergence; for Plant response rating, Sunflower: visual, 12 to 14 days
In short: as §2

[7] = system: velvetleaf; test: Test C pre-/postemergence herbicide test; assay type: in vivo, Abutilon theophrasti
In short: as §2

[8] = system: lambsquarters; test: Test C pre-/postemergence herbicide test; assay type: in vivo, Chenopodium album
In short: as §2

[9] = system: corn; test: Test C pre-/postemergence herbicide test; assay type: in vivo, Zea mays
In short: as §2

[10] = system: large crabgrass; test: Test A pre-/postemergence herbicide test; assay type: in vivo, Digitaria sanguinalis; details: for Plant response rating, Crabgrass, Large: Postemergence; for Crabgrass, Large plant response rating: Preemergence
In short: as §1

[11] = 500 g ai/ha, 0 to 100 scale, 0 no effect, 100 complete control
[12] = 2000 g ai/ha, 0 to 100 scale, 0 no effect, 100 complete control
[13] = 500 g ai/ha, visual rating, 0 to 100 scale (0 no effect, 100 complete control)
[14] = 125 g ai/ha, scale 0 (no effect) to 100 (complete control), visual, 12 to 14 days, preemergence
[15] = 250 g ai/ha, scale 0 to 100 (0 no effect, 100 complete control), visual, 12 to 14 days, preemergence
[16] = Postemergence, 250 g ai/ha, scale 0 to 100, 0 no effect, 100 complete control
[17] = postemergence, 62 g ai/ha, scale 0 to 100
[18] = Postemergence, 125 g ai/ha, scale 0 to 100, 0 no effect, 100 complete control
[19] = 125 g ai/ha, scale 0 (no effect) to 100 (complete control)
[20] = 250 g ai/ha, scale 0 to 100 (0 no effect, 100 complete control)
[21] = Preemergence, 500 g ai/ha, scale 0 to 100, 0 no effect, 100 complete control

CCn1nc(C(C)(C)C)cc1C(=O)Nc1cccc(C(=O)NC2CC2)c1 [Compound 44]
Plant response rating, Barnyardgrass [1, 11]: 90
Plant response rating, Barnyardgrass [1, 12]: 100
Barnyardgrass plant response rating [1, 13]: 75
Barnyardgrass plant response rating [1, 12]: 90
Plant response rating (0 = no effect, 100 = complete control), Ragweed ([2]; 62 g ai/ha, preemergence): 0
Plant response rating, Ragweed [2, 14]: 30
Plant response rating, Ragweed [2, 15]: 70
Plant response rating, Ragweed [2, 16]: 90
Plant response rating, Ragweed [2, 17]: 50
Plant response rating (0 = no effect, 100 = complete control), Kochia ([3]; 62 g ai/ha, preemergence): 0
Plant response rating, Kochia [3, 14]: 10
Plant response rating, Kochia [3, 15]: 10
Plant response rating, Kochia [3, 18]: 90
Plant response rating, Kochia [3, 16]: 90
Plant response rating, Kochia [3, 17]: 90
Plant response rating (0 = no effect, 100 = complete control), Foxtail, Giant ([4]; 62 g ai/ha, preemergence): 10
Plant response rating, Foxtail, Giant [4, 14]: 10
Plant response rating, Foxtail, Giant [4, 15]: 10
Plant response rating, Foxtail, Giant [4, 18]: 30
Plant response rating, Foxtail, Giant [4, 16]: 50
Plant response rating, Foxtail, Giant [4, 17]: 30
Plant response rating, Pigweed [5, 11]: 100
Plant response rating, Pigweed [5, 12]: 100
Pigweed plant response rating [5, 13]: 100
Pigweed plant response rating [5, 12]: 100
Plant response rating (0 = no effect, 100 = complete control), Sunflower [6]: 0
Plant response rating, Sunflower [6, 19]: 0
Plant response rating, Sunflower [6, 20]: 0
Plant response rating (0 = no effect, 100 = complete control), Velvetleaf ([7]; 62 g ai/ha, preemergence): 70
Plant response rating, Velvetleaf [7, 14]: 70
Plant response rating, Velvetleaf [7, 15]: 70
Plant response rating, Velvetleaf [7, 17]: 60
Plant response rating (0 = no effect, 100 = complete control), Lambsquarters ([8]; 62 g ai/ha, preemergence): 90
Plant response rating, Lambsquarters [8, 14]: 100
Plant response rating, Lambsquarters [8, 15]: 100
Plant response rating, Lambsquarters [8, 16]: 90
Plant response rating, Lambsquarters [8, 17]: 90
Plant response rating (0 = no effect, 100 = complete control), Corn ([9]; 62 g ai/ha, preemergence): 0
Plant response rating, Corn [9, 14]: 0
Plant response rating, Corn [9, 15]: 0
Plant response rating, Corn [9, 18]: 70
Plant response rating, Corn [9, 16]: 80
Plant response rating, Corn [9, 17]: 70
Plant response rating, Crabgrass, Large [10, 11]: 55
Plant response rating, Crabgrass, Large [10, 12]: 80
Crabgrass, Large plant response rating [10, 13]: 45
Crabgrass, Large plant response rating [10, 12]: 90

CCn1nc(C(C)(C)C)cc1C(=O)Nc1cccc(C(=O)NCC(C)C)c1 [Compound 61]
Plant response rating, Barnyardgrass [1, 11]: 35
Plant response rating, Barnyardgrass [1, 12]: 90
Barnyardgrass plant response rating [1, 13]: 40
Barnyardgrass plant response rating [1, 12]: 75
Plant response rating (0 = no effect, 100 = complete control), Ragweed ([2]; 62 g ai/ha, preemergence): 0
Plant response rating, Ragweed [2, 14]: 0
Plant response rating, Ragweed [2, 15]: 80
Ragweed plant response rating [2, 21]: 80
Plant response rating (0 = no effect, 100 = complete control), Kochia ([3]; 62 g ai/ha, preemergence): 10
Plant response rating, Kochia [3, 14]: 100
Plant response rating, Kochia [3, 15]: 100
Kochia plant response rating [3, 21]: 100
Plant response rating (0 = no effect, 100 = complete control), Foxtail, Giant ([4]; 62 g ai/ha, preemergence): 0
Plant response rating, Foxtail, Giant [4, 14]: 20
Plant response rating, Foxtail, Giant [4, 15]: 40
Foxtail, Giant plant response rating [4, 21]: 60
Plant response rating, Pigweed [5, 11]: 85
Plant response rating, Pigweed [5, 12]: 95
Pigweed plant response rating [5, 13]: 95
Pigweed plant response rating [5, 12]: 65
Plant response rating (0 = no effect, 100 = complete control), Sunflower [6]: 0
Plant response rating, Sunflower [6, 19]: 0
Plant response rating, Sunflower [6, 20]: 0
Sunflower plant response rating [6, 21]: 0
Plant response rating, Velvetleaf [7, 14]: 45
Plant response rating, Velvetleaf [7, 15]: 80
Velvetleaf plant response rating [7, 21]: 100
Plant response rating (0 = no effect, 100 = complete control), Lambsquarters ([8]; 62 g ai/ha, preemergence): 100
Plant response rating, Lambsquarters [8, 14]: 100
Plant response rating, Lambsquarters [8, 15]: 100
Lambsquarters plant response rating [8, 21]: 100
Plant response rating (0 = no effect, 100 = complete control), Corn ([9]; 62 g ai/ha, preemergence): 0
Plant response rating, Corn [9, 14]: 0
Plant response rating, Corn [9, 15]: 0
Corn plant response rating [9, 21]: 0
Plant response rating, Crabgrass, Large [10, 11]: 30
Plant response rating, Crabgrass, Large [10, 12]: 45
Crabgrass, Large plant response rating [10, 13]: 75
Crabgrass, Large plant response rating [10, 12]: 90
